Reference: patent US20200138822A1, “TOPICAL COMPOSITIONS COMPRISING PENTOXIFYLLINE AND METHODS OF TREATMENT USING THE SAME” (priority 2018, published 2020)

Columns and labels:
BD patients = test: Randomized, open-label clinical study: adverse events / safety; conditions: 14-day study
Experimental: (§1) A randomized, open-label, proof-of-concept clinical study was conducted under an FDA Investigational New Drug Application (IND). […] The CLC was administered orally as a pill and dosed as determined by the subject's physician. No less than every 48 hours, subjects' ulcers were photographed and examined using digital image processing to determine ulcer area, over a period of 14 days, which include daily collection of adverse events, ulcer number, and pain scores.
(§2) Inclusion criteria required the recent (<2 days) appearance of a new oral ulcer. Patients on immunosuppressant therapies were excluded from the study.
All adverse events were reviewed in real time by the treating physician investigator.

[1] = system: oral ulcers of BD patients; test: Randomized, open-label clinical study: index ulcer healing (ulcer area by digital image processing); format: in vivo, human
Experimental: as §1, §2
Patients were contacted daily for 14 consecutive days and were examined in-person no less than every 48 hours except for weekends. On the first day of entry into the study, the largest ulcer was identified and photographed as the “index ulcer”; its location was recorded and it was subsequently photographed at every in-person visit. Photographs were made with a paper ruler showing millimeter graduations lain in the same plane as the ulcer itself. Graphical processing software was used to compute the ulcer area in square millimeters; this software was calibrated from the paper ruler image and required drawing a line around the image of the ulcer margin.
Then, the proportion of patients with undetectable index ulcer (defined as those with an ulcer area of less than 1 mm^2) at day 4 was compared. Lastly, the trend in mean ulcer area over 14 days was compared as well as the results' sensitivity to outliers.

[2] = system: oral ulcers of BD patients; test: Randomized, open-label clinical study: daily average number of oral ulcers; format: in vivo, human; conditions: during the two-week treatment period; mean +/- SD
Experimental: as §1, §2
The total number of oral ulcers were also counted at each in-person visit, and the daily average number of oral ulcers were calculated during the treatment period.

[3] = times greater than PTX; cited from earlier work
[4] = Day 2, PTX+CLC n = 18, CLC n = 21
[5] = Day 4 clearance, undetectable = ulcer area less than 1 mm^2, n = 18 / n = 21

Structure (SMILES): COc1cc2c(c(OC)c1OC)-c1ccc(OC)c(=O)cc1[C@@H](NC(C)=O)CC2 [CLC, colchicine]
- Serious adverse events (BD patients): No serious adverse events occurred
- Dysgeusia - % of patients (BD patients; adverse event): 0%
- Dysgeusia - number of patients (BD patients; adverse event): 0
- Limited dermal rashes - % of patients (BD patients; adverse event): 29%
- Limited dermal rashes - number of patients (BD patients; adverse event): 6
- Nausea - % of patients (BD patients; adverse event): 10%
- Nausea - number of patients (BD patients; adverse event): 2
- Vomiting - number of patients (BD patients; adverse event): none
- Patients with Index Ulcer Growth - % [1, 4]: (80%)
- Patients with Index Ulcer Growth - Number [1, 4]: 16
- Patients with Index Ulcer Shrinkage - % [1, 4]: (19%)
- Patients with Index Ulcer Shrinkage - Number [1, 4]: 4
- Patients with Index Ulcer Shrinkage - % ([1]; Day 2, PTX+CLC n = 18, CLC n = 21, listed as CLC-only): 19%
- Patients with Remaining Ulcers - % ([1]; Day 4, n = 18 / n = 21): (71%)
- Patients with Remaining Ulcers - Number ([1]; Day 4, n = 18 / n = 21): 15
- Patients with Undetectable Ulcers - % [1, 5]: (29%)
- Patients with Undetectable Ulcers - Number [1, 5]: 6
- Patients with Undetectable Ulcers - % ([1]; Day 4 clearance, undetectable = ulcer area less than 1 mm^2, n = 18 / n = 21, listed as CLC-only): 29%
- Mean index ulcer area by treatment group (trend) ([1]; FIG. 1, over 14 days from day zero): first growing then slowly decreasing
- Daily average number of oral ulcers [2]: 1.89+/−1.36

Structure (SMILES): CC(O)CCCCn1c(=O)c2c(ncn2C)n(C)c1=O (stereo not shown) [Metabolite 1, 1-[5-hydroxyhexyl]-3,7-dimethylxanthine]
- Plasma levels of metabolite relative to PTX [3]: five

Structure (SMILES): Cn1cnc2c1c(=O)n(CCCC(=O)O)c(=O)n2C [Metabolite V, 1-[3-carboxypropyl]-3,7-dimethylxanthine]
- Plasma levels of metabolite relative to PTX [3]: eight
